# Measurements as given in PubChem BioAssay AID1259411 (Chemical Carcinogenesis Research Information System (CCRIS), 2018).
# Calls of active or inactive are those of the source. The rule behind the calls is not given here.
# Test system: rodent carcinogenicity bioassays, tumor incidence
# Test: CCRIS carcinogenicity studies
# Outline: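 Archive of carcinogenicity, mutagenicity, tumor promotion and tumor inhibition results drawn from journals, NCI reports and other sources, expert-reviewed; covers 1985-2011 and is no longer updated.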
smiles,measurement,setting,value
O=C1NC(=O)C(c2ccccc2)(c2ccccc2)N1,carcinogen call,"Species: MOUSE, Route: INTRAPERITONEAL, ORAL, Tumor Site: Type of Lesion: HEMATOPOIETIC SYSTEM (LEUKEMIA), LYMPHATIC SYSTEM: LYMPHOMA",active; positive
same,carcinogen call,"Species: MOUSE, Strain/Sex: B6C3F1/FEMALE, Route: IN UTERO, ORAL, Dose: 0, 21 PPM IN DIET FED TO MOTHERS 1 WK BEFORE BREEDING, THROUGH BREEDING, GESTATION AND LACTATION, THEN DIETS WITH 60 PPM",inactive; negative
same,carcinogen call,"Species: MOUSE, Strain/Sex: B6C3F1/FEMALE, Route: IN UTERO, ORAL, Dose: 0, 70 PPM IN DIET FED TO MOTHERS 1 WK BEFORE BREEDING, THROUGH BREEDING, GESTATION AND LACTATION, THEN DIETS WITH 200 PP",inactive; negative
same,carcinogen call,"Species: MOUSE, Strain/Sex: B6C3F1/FEMALE, Route: IN UTERO, ORAL, Dose: 0, 210 PPM IN DIET FED TO MOTHERS 1 WK BEFORE BREEDING, THROUGH BREEDING, GESTATION AND LACTATION, THEN DIETS WITH 0, 20, Tumor Site: Type of Lesion: LIVER: HEPATOCELLULAR ADENOMA, HEPATOCELLULAR CARCINOMA",active; positive
same,carcinogen call,"Species: MOUSE, Strain/Sex: B6C3F1/FEMALE, Route: ORAL, Dose: 0, 200, 600 PPM IN DIET FOR 2 YR (STUDY DURATION: 2 YR), Dose: 0, 200, 600 PPM IN DIET FOR 2 YR (STUDY DURATION: 2 YR), Tumor Site: Type of Lesion: LIVER: HEPATOCELLULAR ADENOMA, HEPATOCELLULAR CARCINOMA",active; positive
same,carcinogen call,"Species: MOUSE, Strain/Sex: B6C3F1/MALE, Route: IN UTERO, ORAL, Dose: 0, 21 PPM IN DIET FED TO MOTHERS 1 WK BEFORE BREEDING, THROUGH BREEDING, GESTATION AND LACTATION, THEN DIETS WITH 30 PPM",inactive; negative
same,carcinogen call,"Species: MOUSE, Strain/Sex: B6C3F1/MALE, Route: IN UTERO, ORAL, Dose: 0, 70 PPM IN DIET FED TO MOTHERS 1 WK BEFORE BREEDING, THROUGH BREEDING, GESTATION AND LACTATION, THEN DIETS WITH 100 PP",inactive; negative
same,carcinogen call,"Species: MOUSE, Strain/Sex: B6C3F1/MALE, Route: IN UTERO, ORAL, Dose: 0, 210 PPM IN DIET FED TO MOTHERS 1 WK BEFORE BREEDING, THROUGH BREEDING, GESTATION AND LACTATION, THEN DIETS WITH 0, 10",inactive; negative
same,carcinogen call,"Species: MOUSE, Strain/Sex: B6C3F1/MALE, Route: ORAL, Dose: 0, 100, 300 PPM IN DIET FOR 2 YR (STUDY DURATION: 2 YR), Dose: 0, 100, 300 PPM IN DIET FOR 2 YR (STUDY DURATION: 2 YR)",inactive; negative
same,carcinogen call,"Species: RAT, Strain/Sex: F344/DUCRJ/FEMALE, Route: ORAL, Dose: 0, 0.025, 0.05% IN BASAL DIET FOR 2 YR (STUDY DURATION: 112 WK), Dose: 0, 0.025, 0.05% IN BASAL DIET FOR 2 YR (STUDY DURATION: 112 WK)",inactive; negative
same,carcinogen call,"Species: RAT, Strain/Sex: F344/DUCRJ/MALE, Route: ORAL, Dose: 0, 0.025, 0.05% IN BASAL DIET FOR 2 YR (STUDY DURATION: 112 WK), Dose: 0, 0.025, 0.05% IN BASAL DIET FOR 2 YR (STUDY DURATION: 112 WK)",inactive; negative
same,carcinogen call,"Species: RAT, Strain/Sex: F344/FEMALE, Route: IN UTERO, ORAL, Dose: 0, 63 PPM IN DIET FED TO MOTHERS 1 WK BEFORE BREEDING, THROUGH BREEDING, GESTATION AND LACTATION, THEN DIETS WITH 240 PP",inactive; negative
same,carcinogen call,"Species: RAT, Strain/Sex: F344/FEMALE, Route: IN UTERO, ORAL, Dose: 0, 210 PPM IN DIET FED TO MOTHERS 1 WK BEFORE BREEDING, THROUGH BREEDING, GESTATION AND LACTATION, THEN DIETS WITH 800 P",inactive; negative
same,carcinogen call,"Species: RAT, Strain/Sex: F344/FEMALE, Route: IN UTERO, ORAL, Dose: 0, 630 PPM IN DIET FED TO MOTHERS 1 WK BEFORE BREEDING, THROUGH BREEDING, GESTATION AND LACTATION, THEN DIETS WITH 0, 80",inactive; negative
same,carcinogen call,"Species: RAT, Strain/Sex: F344/FEMALE, Route: ORAL, Dose: 0, 800, 2400 PPM IN DIET FOR 2 YR (STUDY DURATION: 2 YR), Dose: 0, 800, 2400 PPM IN DIET FOR 2 YR (STUDY DURATION: 2 YR)",inactive; negative
same,carcinogen call,"Species: RAT, Strain/Sex: F344/MALE, Route: IN UTERO, ORAL, Dose: 0, 63 PPM IN DIET FED TO MOTHERS 1 WK BEFORE BREEDING, THROUGH BREEDING, GESTATION AND LACTATION, THEN DIETS WITH 240 PP",inactive; negative
same,carcinogen call,"Species: RAT, Strain/Sex: F344/MALE, Route: IN UTERO, ORAL, Dose: 0, 210 PPM IN DIET FED TO MOTHERS 1 WK BEFORE BREEDING, THROUGH BREEDING, GESTATION AND LACTATION, THEN DIETS WITH 800 P",inactive; negative
same,carcinogen call,"Species: RAT, Strain/Sex: F344/MALE, Route: IN UTERO, ORAL, Dose: 0, 630 PPM IN DIET FED TO MOTHERS 1 WK BEFORE BREEDING, THROUGH BREEDING, GESTATION AND LACTATION, THEN DIETS WITH 0, 80",inactive; negative
same,carcinogen call,"Species: RAT, Strain/Sex: F344/MALE, Route: ORAL, Dose: 0, 800, 2400 PPM IN DIET FOR 2 YR (STUDY DURATION: 2 YR), Dose: 0, 800, 2400 PPM IN DIET FOR 2 YR (STUDY DURATION: 2 YR), Tumor Site: Type of Lesion: LIVER: HEPATOCELLULAR ADENOMA OR CARCINOMA",equivocal
Cc1ccc(Nc2ccc(O)c3c2C(=O)c2ccccc2C3=O)cc1,carcinogen call,"Species: MOUSE, Strain/Sex: SWISS-WEBSTER/FEMALE, Route: DERMAL, Dose: 0, 1% IN 0.1 ML 0.1% SODIUM LAURYL SULFATE 1/WK FOR 18 MO (STUDY DURATION: 18 MO)",inactive; negative
same,carcinogen call,"Species: MOUSE, Strain/Sex: SWISS-WEBSTER/MALE, Route: DERMAL, Dose: 0, 1% IN 0.1 ML 0.1% SODIUM LAURYL SULFATE 1/WK FOR 18 MO (STUDY DURATION: 18 MO)",inactive; negative
CCCCCl,carcinogen call,"Species: MOUSE, Strain/Sex: B6C3F1/FEMALE, Route: GAVAGE, Dose: 0, 250, 500 MG/KG IN CORN OIL 5 D/WK FOR 103 WK, Dose: 0, 250, 500 MG/KG IN CORN OIL 5 D/WK FOR 103 WK",inactive; negative
same,carcinogen call,"Species: MOUSE, Strain/Sex: B6C3F1/MALE, Route: GAVAGE, Dose: 0, 500, 1000 MG/KG IN CORN OIL 5 D/WK FOR 103 WK, Dose: 0, 500, 1000 MG/KG IN CORN OIL 5 D/WK FOR 103 WK",inactive; negative
same,carcinogen call,"Species: RAT, Strain/Sex: F344/FEMALE, Route: GAVAGE, Dose: 0, 60, 120 MG/KG IN CORN OIL 5 D/WK FOR 103 WK, Dose: 0, 60, 120 MG/KG IN CORN OIL 5 D/WK FOR 103 WK",inactive; negative
same,carcinogen call,"Species: RAT, Strain/Sex: F344/MALE, Route: GAVAGE, Dose: 0, 60, 120 MG/KG IN CORN OIL 5 D/WK FOR 103 WK, Dose: 0, 60, 120 MG/KG IN CORN OIL 5 D/WK FOR 103 WK",inactive; negative
